“Also recorded” adds a separate entry of the source. Read-outs that look alike come from different tables or passages of the source.
Key:
[1] = LC-MS/MS measurement of CASIN pharmacokinetics in mouse serum; type: in vivo, C57BL/6 mice; conditions: for concentration at 3 h: female, C57BL/6, mouse, serum, intraperitoneal, 25 mg/kg
Protocol: CASIN solution and IP treatment. CASIN was prepared fresh before injection by dissolving the drug directly in beta-cyclodextrin solution (Sigma #H5784). IP injections were performed in the morning, every 24 hours, for 4 consecutive days during week 75 of age of the mice. Control mice were injected with equal volume of the solvent. Serum for the cytokine array was prepared from the day 7 bleeding point. […] The same stock of CASIN was used for the entire study. CASIN was provided as lyophilized powder.
Liquid Chromatography-Mass Spectrometry (LC-MS/MS) measurements of CASIN pharmacokinetics in mouse serum. A LC/MS/MS ion chromatography protocol was employed to measure serum CASIN concentration ranging 0.1-10 μM by comparing serum CASIN from i.p. injected mice at varying times with a standard curve derived by in vitro spiking of mouse serum with defined doses of CASIN. An Autosampler maximum recovery vials with caps (Waters), an UPLC-MS system (Waters Quattro Premier XE mass spectrometry with ACQUITY UPLC system), an Acquity BEH C18 UPLC column (2.1×75 mm, 1.7 μm) (Waters), and an Acquity BEH C18 UPLC guard column (Waters) were used. For LC gradient, solvent A contained acetonitrile/water (5/95) with 2 mM ammonium acetate and solvent B contained acetonitrile/water (90/10). The gradient mobile phase switched from 60% solvent A to 57% solvent A over 2 min, to 50% solvent A at 2.1 min, to 46% solvent A over 9.9 min, and then, after changing to 30% at 12.1 min, to 1% solvent A over 5.9 min, then to 60% solvent A at 18.1 min and this was held for 2 min. Column temperature was kept at 25° C. The capillary voltage was 3 KV for electrospray negative (ES-) mode, cone voltage is 45 V, collision 30 V, desolvation temperature, 350° C.; desolvation gas flow is 600 L/h; source temperature was 120° C.; and MRM transition m/z is 305.1->244.
(§1) To determine that a short-term systemic treatment of aged animals with a Cdc42-specific inhibitor would regulate lifespan, CASIN was administered i.p. every 24 hours for 4 consecutive days to 75-week old female C57BL/6 mice (FIG. 1a). CASIN levels in serum were monitored via liquid chromatography-mass spectrometry (FIGS. 2a and 2b). A 50 mg/kg single dose resulted initially in a concentration of about 10 μM in serum (data not shown).

Cdc42 = biological target: T1, Cdc42 (Mus musculus, UniProt P60766); test: Cdc42-GTPase effector domain pull-down assay in bone marrow cells after systemic in vivo treatment; set-up: species or system C57BL/6 mice; conditions: FIG. 1c
T1 construct: lineage depleted BM cells (10^6) were lysed in a Mg^2+ lysis/wash buffer; from tissue; host or cells: lineage-depleted bone marrow cells of C57BL/6 mice treated in vivo with CASIN
Protocol: Cdc42-GTPase effector domain pull-down assays. Relative levels of GTP-bound Cdc42 were determined by an effector pull-down assay. Briefly, lineage depleted BM cells (10^6) were lysed in a Mg^2+ lysis/wash buffer (Upstate cell signaling solutions) containing 10% glycerol, 25 mM sodium fluoride, 1 mM sodium orthovanadate and a protease inhibitor cocktail (Roche Diagnostics). Samples were incubated with PAK-1 binding domain/agarose beads and bound (activated) as well as unbound (non-activated) Cdc42 fractions were probed by immunoblotting with an anti-Cdc42 antibody (Millipore, rabbit polyclonal). Activated protein was normalized to total protein and/or 3-actin (Sigma) and the relative amount was quantified by densitometry.
(§2) Accordingly, chronic toxicity issues from the administration of inhibitor was unlikely. […] Furthermore, CASIN treatment reversed Cdc42 activity in the aged mice cohort to an approximate level of activity seen in the young mice control cohort. Thus, CASIN treatment generally reverted Cdc42 activity levels in aged mice to the level existing in mice approximately 60 weeks younger in age.

[2] = tested on: 75-week old female C57BL/6 mice; test: Lifespan (longevity) study of aged mice, 4-day i.p. treatment; type: in vivo
Text: (§3) Mice. Mice included in the study were female C57BL/6 and were obtained from the internal divisional stock (derived from C57BL/6j mice obtained from both The Jackson Laboratory and NIA/Charles River as well as from C57BL/6JRj mice from Janvier). For the longevity study described herein, 40 mice were randomly selected at 70 weeks of age. Mice were weighed and bled before the beginning of the treatment (day 0) and at day 7 and 35. […] Mice that needed to be euthanized because they were scored as “weak and about to die” according to our approved animal license protocol for evaluating mouse health status remained part of the dataset. Allocation to control or treated group was done randomly (20 mice each experimental group).
Median lifespan, 95% confidence intervals and survival analysis were calculated by Prism GraphPad v7.0c. Of note, the median lifespan of the control group matched data obtained for C57BL/6j mice in a large set of lifespan studies of diverse inbred mouse strains. […]
as §1, with “A 50 mg/kg single dose resulted initially in a concentration of about 10 μM in serum (data not shown).” left out

[3] = Toxicity, weight and peripheral blood counts in the lifespan study; type: in vivo
Text: as §3
Flow cytometry of Peripheral Blood (PB). PB cell immunostaining was performed according to standard procedures and samples were analyzed on a LSRII flow cytometer (BD Biosciences). For PB lineage analysis, the antibodies used were from eBioscience: anti-CD3ε (clone 145-2C11), anti-B220 (clone RA3-6B2), anti-Mac-1 (clone M1/70) and anti-Gr-1 (clone […]). Lineage FACS analysis data were plotted as the percentage of B220+, CD3+ and Myeloid (Gr-1+, Mac-1+ and Gr-1+Mac-1+) cells among total white blood cells. WBC (white blood cell), RBC (red blood cell), Ly (lymphocytes), NE (neutrophils), and Mo (monocyte) counts were generated by using the hemocytometer Hemavet 950, DREW SCIENTIFIC Inc, (FL 33014), USA.
as §2
(§4) Cytokine array analyses were performed to investigate the extent to which aging-associated inflammatory cytokines in serum of aged mice were affected by CASIN treatment.

[4] = tested on: aging-associated inflammatory cytokines in serum; test: Cytokine array (Luminex) of serum of aged mice; type: in vivo, C57BL/6 mice
Protocol: CASIN solution and IP treatment. CASIN was prepared fresh before injection by dissolving the drug directly in beta-cyclodextrin solution (Sigma #H5784). IP injections were performed in the morning, every 24 hours, for 4 consecutive days during week 75 of age of the mice. Control mice were injected with equal volume of the solvent. Serum for the cytokine array was prepared from the day 7 bleeding point. Serum for mass spectrometry analysis of CASIN levels was prepared by bleeding an equal (for sex, strain, origin and age) cohort of mice 3 hours, 24 hours, and 48 hours after the end of the treatment. The same stock of CASIN was used for the entire study. CASIN was provided as lyophilized powder.
Cytokine array. Lumimex Method. Cytokine concentrations in the sample supernatants were determined by using Milliplex™ Multiplex kits (MilliporeSigma, Darmstadt, Germany) according to manufacturer's protocol. Briefly, in a 96 well black plate, 25 μL sample in duplicate was incubated with 25 μL antibody coated beads overnight at 4° C. on a plate shaker. Plates were then washed 2 times using BioTek 405 TS (BioTek, Winooski, Vt.) and 25 μL of secondary antibody was added and incubated at room temperature for 1 hour while shaking. Finally, 25 μL of streptavidin-RPE was added directly to the secondary antibody and incubated for 30 minutes at room temperature with shaking. Plates were then washed 2 more times and 150 μL of sheath fluid was added. Plates were shaken for 5 minutes and then read using luminex technology on the Milliplex Analyzer (MilliporeSigma, Darmstadt, Germany). Concentrations were calculated from standard curves using recombinant proteins and expressed in pg/ml.
as §4

[5] = tested on: hepatitis B virus (HBV) core antigen; test: DNA vaccination response with pCI/C DNA encoding HBV core antigen; type: in vivo, C57BL/6 mice; conditions: aged mice, 13 days after immunization, OLD Solvent vs. OLD CASIN, p<0.05, FIG. 5(B)
Protocol: (§5) Briefly, 75 week-old C57BL/6 mice (referred to in the results as “Old”) and 12-16 week old mice (referred to in the results as “young”) were injected intraperitoneal (“IP”) every 24 hours for four days with a Cdc42-specific inhibitor (e.g., CASIN) at a dosage of interest (e.g., 25 mg/kg) or with solvent as a control group (referred to in the results as “Solvent”). On the fifth day, mice were treated with 5-fluorouracil (“5-FU”). Two methods of vaccination were investigated.
For DNA vaccination: 12 weeks after transplantation, recipient mice were immunized with pCI/C DNA encoding the hepatitis B virus (“HBV”) core antigen. FIG. 5(B) provides the results for DNA vaccination with the HBV core antigen 13 days after immunization along with an ovalbumin (“Ova”) specific immune response. The frequency of interferon gamma positive CD3^+CD8^+ T-cells was analyzed, which is an established surrogate measurement for the success of DNA vaccination protocols. […] In FIG. 5(C), splenic K^b/C93-100-dimer^+ CD8^+ T-cell frequencies were determined by flow cytometry 13 days post-immunization with the HBV core antigen. These T-cell frequencies are a direct measurement of antigen-specific T-cells.

[6] = tested on: inactivated influenza virus (H3N2); test: Viral vaccination response, inactivated influenza virus, antibody titer by ELISA; type: in vivo, C57BL/6 mice; conditions: aged mice, 21 days after the second vaccination, immunized 12 weeks post CASIN treatment, FIG. 5(D)
Protocol: as §5
For viral vaccination, animals were immunized twice at an interval of 4 weeks with inactivated influenza virus (10 μg H3N2+10 μL Al(OH)3) i.m. 12 weeks post CASIN treatment. The antibody titer was determined in serum 21 days after the second vaccination using ELISA technology. n=at least 3 per experiment.

T1 sequence (P60766 whole entry, the tested form may be a part): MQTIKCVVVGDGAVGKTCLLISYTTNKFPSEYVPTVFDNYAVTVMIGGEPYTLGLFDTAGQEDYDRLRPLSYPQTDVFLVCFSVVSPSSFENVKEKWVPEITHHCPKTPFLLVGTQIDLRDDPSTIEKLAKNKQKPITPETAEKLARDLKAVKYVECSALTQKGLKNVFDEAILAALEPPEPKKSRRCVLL

For `OCCNC1CCCc2c1[nH]c1ccc(-c3ccccc3)cc21` (stereo not shown) [CASIN], the “CASIN remaining in serum at the end of the 48 hour window” value ([1]; 25 mg/kg i.p. for 4 consecutive days, 48 hours) was “approximately no CASIN remaining in serum”, the “CASIN concentration in serum” value ([1]; 50 mg/kg single dose, initially (data not shown)) was “about 10 μM” and the concentration at 3 h ([1]; 25 mg/kg i.p. for 4 consecutive days, 48 hour window of analysis, 3 hours, read-out: concentration of CASIN in serum after 3 hours) was roughly 2 µM. The concentration at 3 h ([1]; 25 mg/kg i.p., old mice, 3 hours after injection, FIG. 2b, read-out: levels of CASIN in serum 3 hours after injection) was roughly 5 µM, the “Cdc42-GTP in aged bone marrow cells” value (Cdc42; 24 hours after the last injection, aged mice) was “reduction of Cdc42-GTP in aged bone marrow cells to the level seen in young” and the “decrease of Cdc42 activity” value (Cdc42; with no regard to the age of mouse) was “approximately half”. For the same compound, the Median survival ([2]; aged mice treated at week 75, 25 mg/kg i.p. 4 consecutive days, n=17, control 123.5 weeks) was 136 weeks, the “average and maximum lifespan” value ([2]; aged mice treated for 4 consecutive days, FIG. 1d) was “extension of both their average and maximum lifespan” and the “red blood cell count (RBC)” value ([3]; day 7 and day 35, FIG. 2e) was “did not change”. The “white blood cell count (WBC)” value ([3]; day 7 and day 35, FIG. 2d) was “did not change”, the “frequency and count of myeloid and lymphoid cells in peripheral blood (PB)” value ([3]; day 7 and day 35, FIGS. 2f-k) was “did not change” and the weight ([3]; day 7 and day 35 after beginning of treatment, FIG. 2c) was “did not change”. The acute toxicity ([3]; four days of consecutive i.p. injections, 25 mg/kg, aged mice) was “did not induce acute toxicity”, the “deaths of treated mice after CASIN injections” value ([3]; within 4 weeks after injections) was “none of the treated mice died” and the “GM-CSF concentration in serum” value ([4]; day 7, FIG. 3) was “trend to be reduced”. The “IL-2 concentration in serum” value ([4]; day 7, FIG. 3) was “trend to be reduced”, the IL-9 serum concentration ([4]; day 7, FIG. 1h) was “increased in serum concentration” and the “frequency of interferon gamma positive CD3+CD8+ T-cells” value [5] was “statistically significant increase in immune response”. For the same compound, the “antibody titer in serum” value [6] was “increase in antibody titer; also recorded: approximately equal to that seen in young mice”.

From patent publication US20220288197A1, “METHODS OF TREATING A SUBJECT WITH A CDC42-SPECIFIC INHIBITOR” (Children’s Hospital Medicai Center, priority 2019, published 2022)
